Results reported in patent publication US20040110771A1, “7-(r)-aminotriazolopyrimidines, the production thereof and use of the same for combatting phytopathogenic fungi” (priority 2000, published 2004).

Columns and labels:
Type in all cases: in vivo
Pyrenophora teres = assay: Activity against net blotch of barley caused by Pyrenophora teres; details: barley seedlings "Igri", inoculated 24 h after spraying, 6 days
Experimental: (§1) The active compounds were prepared separately or jointly as a 10% strength emulsion in a mixture of 70% by weight of cyclohexanone, 20% by weight of Nekanil® LN (Lutensol® AP6, wetting agent having emulsifying and dispersing action based on ethoxylated alkylphenols) and 10% by weight of Wettol® EM (nonionic emulsifier based on ethoxylated castor oil) and diluted with water to the desired concentration.
Leaves of potted barley seedlings of the cultivar “Igri” were sprayed to runoff point with an aqueous preparation of active compound which had been prepared from a stock solution made of 10% of active compound, 85% of cyclohexanone and 5% of emulsifier and were inoculated 24 hours after the spray coating had dried on with an aqueous spore suspension of Pyrenophora teres, the net blotch pathogen. The test plants were then placed in a greenhouse at 20-24° C. and 95-100% relative atmospheric humidity. After 6 days, the extent of the development of the disease was determined visually in % infection of the entire leaf area.

Puccinia recondita = assay: Curative activity against brown rust of wheat caused by Puccinia recondita; details: curative spray 24 h after inoculation, wheat seedlings "Kanzler", 7 days
Experimental: as §1
Leaves of potted wheat seedlings of the cultivar “Kanzler” were dusted with spores of brown rust (Puccinia recondita). The pots were then placed in a chamber with high atmospheric humidity (90 to 95%) at 20-22° C. for 24 hours. During this period, the spores germinated and the germinal tubes penetrated into the leaf tissue. The following day, the infected plants were sprayed to runoff point with an aqueous preparation of active compound which had been prepared from a stock solution made of 10% of active compound, 85% of cyclohexanone and 5% of emulsifier. After the spray coating had dried on, the test plants were cultivated in a greenhouse at 20-22° C. and 65-70% relative atmospheric humidity for 7 days. The extent of the rust fungus development on the leaves was then determined.

[1] = tested on: Blumeria graminis forma specialis tritici; assay: Activity against mildew of wheat caused by Blumeria graminis forma specialis tritici; details: wheat seedlings "Kanzler", dusted with spores 24 h after spraying, 7 days
Experimental: as §1
Leaves of potted wheat seedlings of the cultivar “Kanzler” were sprayed to runoff point with an aqueous preparation of active compound which had been prepared from a stock solution made of 10% of active compound, 85% of cyclohexanone and 5% of emulsifier and were dusted 24 hours after the spray coating had dried on with spores of mildew of wheat (Blumeria graminis forma specialis tritici). The test plants were then placed in a greenhouse at 20-24° C. and 60-90% relative atmospheric humidity. After 7 days, the extent of the mildew development was determined visually in % infection of the entire leaf area.

Row | Compound | % infection of the leaves after application of an aqueous preparation comprising . . . ppm of active compound (Pyrenophora teres; 16 ppm) | % infection of the leaves after application of an aqueous preparation comprising . . . ppm of active compound (Pyrenophora teres; 63 ppm) | % infection of the leaves after application of an aqueous preparation comprising . . . ppm of active compound (Pyrenophora teres; 250 ppm) | % infection of the leaves after application of an aqueous preparation comprising . . . ppm of active compound (Puccinia recondita; 16 ppm) | % infection of the leaves after application of an aqueous preparation comprising . . . ppm of active compound (Puccinia recondita; 63 ppm) | % infection of the leaves after application of an aqueous preparation comprising . . . ppm of active compound (Puccinia recondita; 250 ppm) | % infection of the leaves after application of an aqueous preparation comprising . . . ppm of active compound ([1]; 16 ppm) | % infection of the leaves after application of an aqueous preparation comprising . . . ppm of active compound ([1]; 63 ppm) | % infection of the leaves after application of an aqueous preparation comprising . . . ppm of active compound ([1]; 250 ppm)
1 | Cc1cccc(F)c1-c1c(Cl)nc2ncnn2c1NC(C)C(C)C (single isomer, unassigned) [I.-11a] | 5% | 0% | 0% | 80% | 5% | 5% | 7% | 7% | 5%
2 | Cc1cccc(F)c1-c1c(Cl)nc2ncnn2c1N[C@H](C)C(C)C (single isomer, unassigned) [I.-11b] |  | 15% | 0% |  | 20% | 5% |  | 30% | 30%
3 | CC[C@@H](C)Nc1c(-c2c(F)cccc2Cl)c(Cl)nc2ncnn12 [I.-1] | 50% | 0% |  | 5% | 3% | 0% |  |  | 
4 | CCC(C)Nc1c(-c2c(C)cccc2F)c(Cl)nc2ncnn12 (centres unmarked) [I.-10] |  | 3% | 3% | 60% | 40% | 15% |  | 60% | 15%
5 | CC[C@@H](C)Nc1c(-c2c(F)cc(F)cc2F)c(Cl)nc2ncnn12 [I.-13] | 20% |  |  | 3% | 0% |  | 60% | 40% | 
6 | CC[C@@H](C)Nc1c(-c2ccc(F)cc2C)c(Cl)nc2ncnn12 [I.-22] | 7% | 0% |  | 30% | 5% | 3% | 5% | 3% | 3%
7 | Cc1cc(F)ccc1-c1c(Cl)nc2ncnn2c1NC(C)C(C)C (centres unmarked) [I.-23] | 0% |  |  | 3% | 0% | 0% | 15% | 5% | 3%
8 | CCCC[C@@H](C)Nc1c(-c2c(F)cc(F)cc2F)c(Cl)nc2ncnn12 [I.-27] | 3% | 0% | 0% |  |  | 40% |  |  | 
9 | COCC(C)Nc1c(-c2c(F)cc(F)cc2F)c(Cl)nc2ncnn12 (centres unmarked) [I.-32] | 5% | 0% | 0% |  | 70% | 15% |  |  | 
10 | CC[C@H](C)Nc1c(-c2c(F)cccc2Cl)c(Cl)nc2ncnn12 [comparison (S)-amine of I.-1] | 100% | 20% |  | 60% | 20% | 15% |  |  | 
11 | CC[C@H](C)Nc1c(-c2c(C)cccc2F)c(Cl)nc2ncnn12 [comparison (S)-amine of I.-10] |  | 100% | 40% | 100% | 100% | 100% |  | 100% | 100%
12 | Cc1cccc(F)c1-c1c(Cl)nc2ncnn2c1NC(C)C(C)C [comparison (S)-amine of I.-11a] | 100% | 100% | 100% | 100% | 60% | 30% | 80% | 60% | 60%
13 | CCCC[C@H](C)Nc1c(-c2c(F)cc(F)cc2F)c(Cl)nc2ncnn12 [comparison (S)-amine of I.-27] | 100% | 90% | 7% |  |  | 100% |  |  | 
14 | COC[C@H](C)Nc1c(-c2c(F)cc(F)cc2F)c(Cl)nc2ncnn12 [comparison (S)-amine of I.-32] | 90% | 80% | 30% |  | 100% | 80% |  |  | 
